According to paper PMC8308845, “Discovery of Novel Chemical Series of OXA-48 β-Lactamase Inhibitors by High-Throughput Screening” (Pharmaceuticals, 2021):

Legend:
OXA-48 [1] = biological target: T1, OXA-48 (Klebsiella pneumoniae, UniProt Q6XEC0); assay: OXA-48 primary enzymatic assay (nitrocefin substrate, fluorescence-quenching readout); format: biochemical; conditions: dose–response, median of triplicate wells; 15 min preincubation, 25 µM nitrocefin
T1 construct: made in house; host or cells: E. coli BL21(DE3), T7 expression system
Description: After an initial pilot run (three plates, consisting of 960 randomly selected compounds), the primary screening of the subset plates was carried out at 20 µM in single point against OXA-48 enzyme in a nitrocefin-based assay, using the fluorescence-quenching readout. This enzymatic assay employs the cephalosporin nitrocefin as OXA-48 substrate and takes advantage of the fluorescent properties of white microtiter plates. Chromogenic nitrocefin is hydrolyzed by β-lactamases to yield a product with increased absorbance properties (~495 nm) that quenches the plate fluorescence by absorbing the plate’s emission light. In this assay, test compounds that inhibit OXA-48 catalytic activity are predicted to reduce nitrocefin quenching of plate fluorescence, resulting in a quantitative increase in well fluorescence (ON-system for inhibitors). The nitrocefin-based epi-absorbance readout system has been successfully applied in HTS campaigns on other β-lactamases, such as IMP-1 and VIM-2, with the identification of inhibitors belonging to novel scaffolds displaying a favourable degree of selectivity and sub-micromolar potency.
The screening results were expressed as activity percent. […] Overall, the primary assay robustness was good, with Robust Z Prime factor (RZ′) equal to 0.86.
In total, 256 active molecules (125 from the subset and 131 from the full set) were then assayed in dose–response at eight concentrations from 60 to 0.002 µM with interplate triplicate data points.
The blaOXA gene coding for the OXA-48 ß-lactamase, originally cloned from the K. pneumonia 11978 (a clinical isolate from Istanbul Faculty Hospital, Istanbul, Turkey) was overexpressed via a T7 expression system in E. coli BL21(DE3), and its product, native protein, (final yield of 30 mg/L of culture) was subjected to several purification steps, including ion-exchange chromatography with Q-Sepharose and 20 mM Tris-HCl buffer (pH 9.0), followed by chromatography with S-Sepharose columns and 100 mM sodium phosphate buffer (pH 5.8). Elution of the beta-lactamase was performed with a K2SO4 gradient. Peaks of beta-lactamase activity were concentrated and were dialyzed with 100 mM phosphate buffer (pH 7.0). The OXA-48 enzyme was purified to homogeneity (with a degree of purity around 95.4%.)-as measured by 12% SDS PAGE [23]. OXA-48 protein stock solution (2 mg/mL) was finally prepared in 20 mM Hepes (pH 8,1). OXA-48 β-lactamase specific activity was measured by following the hydrolysis of 100 μM nitrocefin (ε: 17,000 M-1 cm^−1 at 482 nm; Δε: 15,000 M-1 cm^−1 at 482 nm) and corresponding to 60.45 μmoles min^−1 mg^−1 of OXA-48 (kcat = 28.85 s^−1) enzyme. A MW of 28,147 g/mol, calculated from the enzyme sequence was confirmed by MALDI-TOF analysis with a Mass error of ± 2.8 Da.
The primary assay was developed to monitor the enzymatic activity of OXA-48 taking advantage of the spectroscopic properties of white microtiter plates (Optiplate-384, PerkinElmer, #6007290), as indicated by Zuck et al.. Nitrocefin is chromogenic substrate for beta-lactamases with λmax = 395 nm (yellow). Upon hydrolysis by OXA-48, nitrocefin yields (2R)-2-[(R)-carboxy[2-(thiophen-2-yl)acetamido]methyl]-5-[(E)-2-(2,4-dinitrophenyl)ethenyl]-3,6-dihydro-2H-1,3-thiazine-4-carboxylic acid, with increased absorbance properties at λmax = 495 nm. Spectroscopic features of the reaction product are exploited to quench the plate intrinsic fluorescence by absorbing the plate’s emission light, which can be monitored by exciting the reaction at 485 nm and recording the emission at 520 nm. Therefore, the primary assay for HTS was an ON-assay, in which compounds targeting OXA-48 were predicted to elicit an increase of the fluorescence signal.
The primary assay was performed in reaction buffer (20 mM Hepes pH 8.0, 12.5 mM NaCl, 0.005% BSA, 0.0005% Brij-35) in the presence of 0.0014 ng/µL OXA-48 and 25 µM nitrocefin in a final volume of 20 µL/well in 384 MTP format. […]

OXA-48 [2] = biological target: T1, OXA-48; assay: Time-dependent inhibition of OXA-48; format: biochemical; conditions: for dependence of AC50 on preincubation time with OXA-48: preincubation 0, 15, 30, 60, 90, 120, 180, 240 min
Description: On this basis, compounds ID1 and ID2 as well as the irreversible reference inhibitor tazobactam were tested in dose–response against OXA-48 lactamase, by pre-incubating the compounds with the enzyme at different time points (0, 15, 30, 60, 90, 120, 180, 240 min) before starting the reaction upon addition of the nitrocefin substrate.
Experimental conditions were identical to the ones applied for the primary assay for HTS: 20 μL of 2X compounds with 1% DMSO; 10 μL 4X enzyme (0.0014 ng/µL OXA-48 final concentration) were dispensed into preincubation plate. The reaction buffer was: 20 mM Hepes pH 8.0, 12.5 mM NaCl, 0.005% BSA-pf, 0.0005% Brij-35.
Preincubation time was for a period spanning from 0 up to 240′ at rt between enzyme and compounds and for 15′ at rt between enzyme and control wells. The reactions were started by transferring of 15 μL of enzyme-compounds or enzyme-control from preincubation plate into assay plate adding 5 μL 4X nitrocefin substrate (25 µM final concentration) at different time points, at 0 (i.e., no preincubation)–15–30–60–90–120–180–240 min of preincubation between OXA-48 and compounds. Reading was at PHERAstar (BMG Labtechnologies), in kinetic for up to 60′ (λex: 485 nm; λem: 520 nm). Data were analyzed to determine the respective AC50 values obtained at all the tested preincubation time points.
b. If the AC50 value was inversely proportional to the preincubation time with OXA-48, the compound was assigned as non-reversible inhibitor.

T1 sequence (Q6XEC0 23-265, looked up): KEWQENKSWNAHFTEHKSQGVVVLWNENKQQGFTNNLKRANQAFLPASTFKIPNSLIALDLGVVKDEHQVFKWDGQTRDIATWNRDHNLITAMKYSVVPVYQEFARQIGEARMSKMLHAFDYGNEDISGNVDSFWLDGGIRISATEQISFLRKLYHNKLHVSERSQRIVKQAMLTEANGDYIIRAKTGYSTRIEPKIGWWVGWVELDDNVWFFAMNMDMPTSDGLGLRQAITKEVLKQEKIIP

Row | AC50 after preincubation relative to AC50 without preincubation (OXA-48 [2]; plateau after 90 min of preincubation) | Compound | AC50 (OXA-48 [1]) [nM] | dependence of AC50 on preincubation time with OXA-48 (OXA-48 [2])
1 | – | O=C(O)c1ccc(C=Nn2c(S)nnc2-c2ccccc2)cc1 [ID1] | 1140 | independent on the preincubation time
2 | – | CCc1ccc(-c2n[nH]c3nc(-c4ccc(C(=O)O)cc4)cc(C(=O)O)c23)cc1 [ID2] | 990 | independent on the preincubation time
3 | almost six-fold lower | C[C@]1(Cn2ccnn2)[C@H](C(=O)O)N2C(=O)C[C@H]2S1(=O)=O [tazobactam, reference compound] | 840 | inversely proportional time-dependent inhibition
